Consider 23 compounds from PubChem BioAssay AID256 (DTP/NCI, 2004).

Where “and” joins values, the source holds several entries; their conditions need not be identical. Equal entries are not always repeated. Inconclusive results and toxic doses are left out.

The subject of the assay is CD2F1 mice, L1210 leukemia ip, survival T/C. Kind of assay: NCI In Vivo Anticancer Drug Screen. Data for tumor model L1210 Leukemia (intraperitoneal) in CD2F1 (CDF1) mice. The settings on record: higher = longer survival. In outline:
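Implant tumor; dose compound or vehicle; measure endpoint in both groups; report treated divided by control.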

Where [1] appears, read: endpoint: mean survival time, dose: 25.0 mg/kg/injection, schedule: Q04DX002 (ip), vehicle: saline with Tween-80.
Where [2] appears, read: endpoint: mean survival time, dose: 100.0 mg/kg/injection, schedule: Q01DX009 (ip), vehicle: saline with Tween-80.
The mark [3] stands for this setting: endpoint: mean survival time, dose: 100.0 mg/kg/injection, schedule: Q04DX003 (ip), vehicle: saline with Tween-80.
The mark [4] stands for this setting: endpoint: mean survival time, dose: 200.0 mg/kg/injection, schedule: Q01DX009 (ip), vehicle: saline with Tween-80.
[5] abbreviates: endpoint: mean survival time, dose: 200.0 mg/kg/injection, schedule: Q04DX003 (ip), vehicle: saline with Tween-80.
The mark [6] stands for this setting: endpoint: mean survival time, dose: 100.0 mg/kg/injection, schedule: Q04DX002 (ip), vehicle: saline with Tween-80.
[7] abbreviates: endpoint: mean survival time, dose: 400.0 mg/kg/injection, schedule: Q04DX003 (ip), vehicle: saline with Tween-80.
Setting [8] is: endpoint: mean survival time, dose: 100.0 mg/kg/injection, schedule: Q01DX009 (ip), vehicle: Klucel (hydroxypropylcellulose) (HPC).
Setting [9] is: endpoint: mean survival time, dose: 200.0 mg/kg/injection, schedule: Q01DX009 (ip), vehicle: Klucel (hydroxypropylcellulose) (HPC).
The mark [10] stands for this setting: endpoint: mean survival time, dose: 400.0 mg/kg/injection, schedule: Q01DX009 (ip), vehicle: Klucel (hydroxypropylcellulose) (HPC).
The mark [11] stands for this setting: endpoint: mean survival time, dose: 400.0 mg/kg/injection, schedule: Q01DX009 (ip), vehicle: saline with Tween-80.

Turning to `O=C(COc1ccccc1)NC(=S)Nc1ccc(Cl)c(Cl)c1`, the T/C was 97 % of control and 105 % of control under setting [1]; 101 % of control (endpoint: mean survival time, dose: 50.0 mg/kg/injection, schedule: Q01DX001 (ip), vehicle: saline with Tween-80); 98 % of control and 102 % of control (endpoint: mean survival time, dose: 50.0 mg/kg/injection, schedule: Q01DX009 (ip), vehicle: saline with Tween-80); 98 % of control (endpoint: mean survival time, dose: 50.0 mg/kg/injection, schedule: Q04DX003 (ip), vehicle: saline with Tween-80); 101 % of control (endpoint: mean survival time, dose: 100.0 mg/kg/injection, schedule: Q01DX001 (ip), vehicle: saline with Tween-80); 98 % of control and 106 % of control under setting [2]. The T/C was 96 % of control under setting [3]; 95 % of control (endpoint: mean survival time, dose: 200.0 mg/kg/injection, schedule: Q01DX001 (ip), vehicle: saline with Tween-80); 93 % of control and 96 % of control under setting [4]; 98 % of control under setting [5].

On to `CCC1NC(=O)C(NC(=O)c2ncccc2O)C(C)OC(=O)C(c2ccccc2)NC(=O)C2CC(=O)CCN2C(=O)C(Cc2ccccc2)N(C)C(=O)C2CCCN2C1=O` (stereo not given), for which the T/C was 108 % of control under setting [6] and 108 % of control (endpoint: mean survival time, dose: 200.0 mg/kg/injection, schedule: Q04DX002 (ip), vehicle: saline with Tween-80).

For `CCOC(=O)C(Cc1ccccc1Cl)(Cc1ccccc1Cl)c1ccccc1`, the T/C under setting [3] was 93 % of control, the T/C under setting [5] was 98 % of control and the T/C under setting [7] was 90 % of control.

With `S=c1[nH]cc[nH]1`, the T/C (endpoint: mean survival time, dose: 100.0 mg/kg/injection, schedule: Q01DX001 (ip), vehicle: saline) is 103 % of control; the T/C (endpoint: mean survival time, dose: 200.0 mg/kg/injection, schedule: Q01DX001 (ip), vehicle: saline) is 100 % of control; the T/C (endpoint: mean survival time, dose: 400.0 mg/kg/injection, schedule: Q01DX001 (ip), vehicle: saline) was 96 % of control.

`O=C(O)C(=O)c1ccccc1`: the T/C was 98 % of control (endpoint: mean survival time, dose: 50.0 mg/kg/injection, schedule: Q01DX009 (ip), vehicle: saline); 104 % of control (endpoint: mean survival time, dose: 100.0 mg/kg/injection, schedule: Q01DX009 (ip), vehicle: saline); 107 % of control (endpoint: mean survival time, dose: 200.0 mg/kg/injection, schedule: Q01DX009 (ip), vehicle: saline).

For `[Cl][Co]([Cl])[Cl].[NH-]CCCN.[NH-]CCC[NH-]`, the T/C was 113 % of control under setting [8]; 101 % of control (endpoint: mean survival time, dose: 100.0 mg/kg/injection, schedule: Q04DX003 (ip), vehicle: saline); 113 % of control under setting [9]; 104 % of control (endpoint: mean survival time, dose: 200.0 mg/kg/injection, schedule: Q04DX003 (ip), vehicle: saline); 104 % of control under setting [10]; 104 % of control (endpoint: mean survival time, dose: 400.0 mg/kg/injection, schedule: Q04DX003 (ip), vehicle: saline).

Turning to `[Cl][Hg][c]1ccco1`, the T/C runs as follows: (endpoint: mean survival time, dose: 1.25 mg/kg/injection, schedule: Q01DX001 (ip), vehicle: Klucel (hydroxypropylcellulose) (HPC)) 100 % of control; (endpoint: mean survival time, dose: 2.5 mg/kg/injection, schedule: Q01DX001 (ip), vehicle: Klucel (hydroxypropylcellulose) (HPC)) 96 % of control; (endpoint: mean survival time, dose: 5.0 mg/kg/injection, schedule: Q01DX001 (ip), vehicle: Klucel (hydroxypropylcellulose) (HPC)) 97 % of control.

`COC1=c2\cccc\c2=N\C(OC)=c2\cccc\c2=N\1`: the T/C is 101 % of control under setting [3], 101 % of control under setting [5] and 98 % of control under setting [7].

For the compound `N#CCCN(N=O)C(=O)Nc1ccccc1`, the T/C is, setting by setting: (endpoint: mean survival time, dose: 6.25 mg/kg/injection, schedule: Q01DX Z (ip), vehicle: carboxymethylcellulose (CMC)) 110 % of control; (endpoint: mean survival time, dose: 12.5 mg/kg/injection, schedule: Q01DX Z (ip), vehicle: carboxymethylcellulose (CMC)) 115 % of control; (endpoint: mean survival time, dose: 75.0 mg/kg/injection, schedule: Q01DX Z (ip), vehicle: carboxymethylcellulose (CMC)) 102 % of control.

Take `CCN1C=C/C(=C/c2cc3scc(-c4ccccc4)[n+]3c3ccccc23)c2ccccc21`: the T/C by setting is: (endpoint: mean survival time, dose: 0.01 mg/kg/injection, schedule: Q01DX009 (ip), vehicle: saline) 97 % of control; (endpoint: mean survival time, dose: 0.02 mg/kg/injection, schedule: Q01DX009 (ip), vehicle: saline) 100 % of control; (endpoint: mean survival time, dose: 0.04 mg/kg/injection, schedule: Q01DX009 (ip), vehicle: saline) 103 % of control.

As to `COC(=O)C1CCC(N(C)S(=O)(=O)c2ccc(C)cc2)CC1` (stereo not given), the T/C under setting [8] is 100 % of control, the T/C under setting [9] is 96 % of control and the T/C under setting [10] is 92 % of control.

Turning to `CC(=O)OC1COC(NC(=O)N(CCCl)N=O)C(OC(C)=O)C1OC(C)=O` (stereo not given), the T/C (endpoint: median survival time, dose: 0.75 mg/kg/injection, schedule: Q01DX009 (ip), vehicle: saline with Tween-80) is 115 % of control and 122 % of control and 111 % of control; the T/C (endpoint: median survival time, dose: 3.0 mg/kg/injection, schedule: Q01DX009 (ip), vehicle: saline with Tween-80) was 150 % of control and 166 % of control; the T/C (endpoint: median survival time, dose: 6.0 mg/kg/injection, schedule: Q01DX009 (ip), vehicle: saline with Tween-80) was 168 % of control and 191 % of control and 205 % of control; the T/C (endpoint: median survival time, dose: 12.0 mg/kg/injection, schedule: Q01DX009 (ip), vehicle: saline with Tween-80) is 315 % of control and 322 % of control and 674 % of control.

Regarding `N#CSCCSC#N`, the T/C by setting is: (endpoint: mean survival time, dose: 2.5 mg/kg/injection, schedule: Q04DX003 (ip), vehicle: Klucel (hydroxypropylcellulose) (HPC)) 102 % of control; (endpoint: mean survival time, dose: 5.0 mg/kg/injection, schedule: Q04DX003 (ip), vehicle: Klucel (hydroxypropylcellulose) (HPC)) 120 % of control; (endpoint: mean survival time, dose: 10.0 mg/kg/injection, schedule: Q04DX003 (ip), vehicle: Klucel (hydroxypropylcellulose) (HPC)) 105 % of control.

On to `C[Si](C)(CCl)N[Si](C)(C)CCl`, for which the T/C under setting [2] is 100 % of control; the T/C under setting [3] is 98 % of control; the T/C under setting [4] was 97 % of control; the T/C under setting [5] was 96 % of control; the T/C under setting [11] is 100 % of control; the T/C under setting [7] was 102 % of control.

As to `COC(=O)c1ccc(=O)c2nc3/c(=C/O)c(O)cc(=O)c3[nH]c12`, the T/C is, setting by setting: (endpoint: mean survival time, dose: 5.0 mg/kg/injection, schedule: Q04DX003 (ip), vehicle: saline with Tween-80) 107 % of control; (endpoint: mean survival time, dose: 10.0 mg/kg/injection, schedule: Q04DX003 (ip), vehicle: saline with Tween-80) 90 % of control.

In the case of `COc1ccc(C(CO)=C(c2ccc(OC)cc2)c2ccc(OC)cc2)cc1`, the T/C under setting [3] is 103 % of control, the T/C under setting [5] is 94 % of control and the T/C under setting [7] is 95 % of control.

On to `CCOC(=O)Nc1ccc(F)cc1C`, for which the T/C was 97 % of control under setting [3], 97 % of control under setting [5] and 95 % of control under setting [7].

As to `NC(=N\O)/C(N)=N/O.[Cl][Pd][Cl]`, the T/C is, setting by setting: (endpoint: median survival time, dose: 3.12 mg/kg/injection, schedule: Q04DX003 (ip), vehicle: saline) 100 % of control; (endpoint: median survival time, dose: 6.25 mg/kg/injection, schedule: Q04DX003 (ip), vehicle: saline) 100 % of control; (endpoint: median survival time, dose: 12.5 mg/kg/injection, schedule: Q04DX003 (ip), vehicle: saline) 103 % of control; (endpoint: median survival time, dose: 25.0 mg/kg/injection, schedule: Q04DX003 (ip), vehicle: saline) 100 % of control; (endpoint: median survival time, dose: 50.0 mg/kg/injection, schedule: Q04DX003 (ip), vehicle: saline) 97 % of control; (endpoint: median survival time, dose: 100.0 mg/kg/injection, schedule: Q04DX003 (ip), vehicle: saline) 98 % of control. Moreover, the T/C (endpoint: median survival time, dose: 200.0 mg/kg/injection, schedule: Q04DX003 (ip), vehicle: saline) was 97 % of control.

For the compound `CNC(=O)Nc1ccc(S(N)(=O)=O)cc1`, the T/C is 97 % of control under setting [2], 91 % of control under setting [4] and 100 % of control under setting [11].

With `CCOC(=O)CCC(C(=O)OCC)N1C(=O)c2ccccc2C1=O` (stereo not given), the T/C under setting [1] is 100 % of control; the T/C (endpoint: mean survival time, dose: 50.0 mg/kg/injection, schedule: Q04DX002 (ip), vehicle: saline with Tween-80) is 103 % of control; the T/C under setting [6] was 100 % of control.

Regarding `Cn1cc(C2NC(=O)c3ccccc3N2)c2ccccc21` (stereo not given), the T/C (endpoint: median survival time, dose: 100.0 mg/kg/injection, schedule: Q01DX009 (ip), vehicle: Klucel (hydroxypropylcellulose) (HPC)) is 119 % of control.

In the case of `CC(C)CCCC(C)C1CCC2C3CCC45CC4C(=O)CCC5(C)C3CCC12C` (stereo not given), the T/C reads like this: (endpoint: mean survival time, dose: 100.0 mg/kg/injection, schedule: Q04DX003 (ip), vehicle: acetone) 102 % of control; under setting [3], 91 % of control; (endpoint: mean survival time, dose: 200.0 mg/kg/injection, schedule: Q04DX003 (ip), vehicle: acetone) 93 % of control; under setting [5], 93 % of control; (endpoint: mean survival time, dose: 400.0 mg/kg/injection, schedule: Q04DX003 (ip), vehicle: acetone) 89 % of control; under setting [7], 95 % of control.

Turning to `O=S(=O)(C1CCCCC1)N1N=NC2CCCCC21` (stereo not given), the T/C reads like this: under setting [3], 100 % of control; under setting [5], 102 % of control.
